Test results: the supplement of paper PMC10307832

Experiments:
Experiment in all cases: relative viability (nuclei count vs DMSO), 5 days (fraction); higher = more cells survive
[1] = compound: C1=CC(=CC=C1C2=CC(=C(S2)NC(=O)N)C(=O)N)F [TPCA-1] + CS(=O)(=O)CCNCc1ccc(-c2ccc3ncnc(Nc4ccc(OCc5cccc(F)c5)c(Cl)c4)c3c2)o1 [Lapatinib] (partner 2 µM)
Outline: (§1)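 Lung cancer cell lines were seeded in 1536-well plates and dosed by pin tool the next day, with either a single drug or a fixed anchor-drug dose combined with five library-drug doses (not always all listed) spaced in √10 steps. Five days later, one step fixed the cells and stained their nuclei (final 0.05% Triton X-100, 1% formaldehyde, 1 ug/ml Hoechst), and nuclei were counted on 4× images. Relative viability is the nuclei count in treated wells divided by the count in vehicle wells, and each value is the median of duplicate plates.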

[2] = compound: C1/C(=C\C2=CC=CS2)/C(=O)/C(=C/C3=CC=CS3)/C1 + CS(=O)(=O)CCNCc1ccc(-c2ccc3ncnc(Nc4ccc(OCc5cccc(F)c5)c(Cl)c4)c3c2)o1 [Lapatinib] (partner 2 µM)
Outline: as §1

[3] = compound: C1=CC(=CC=C1C2=CC(=C(S2)NC(=O)N)C(=O)N)F [TPCA-1] + Cc1nc(Nc2ncc(C(=O)Nc3c(C)cccc3Cl)s2)cc(N2CCN(CCO)CC2)n1 [Dasatinib] (partner 0.075 µM)
Outline: as §1

[4] = compound: C1=CC(=CC=C1C2=CC(=C(S2)NC(=O)N)C(=O)N)F [TPCA-1] + CC(=O)Nc1cccc(-n2c(=O)n(C3CC3)c(=O)c3c(Nc4ccc(I)cc4F)n(C)c(=O)c(C)c32)c1 [Trametinib] (partner 0.02 µM)
Outline: as §1

| Cell Line | relative viability ([1]; first compound 0.04 µM) | relative viability ([1]; first compound 0.1265 µM) | relative viability ([1]; first compound 0.4 µM) | relative viability ([1]; first compound 1.265 µM) | relative viability ([1]; first compound 4 µM) | relative viability ([2]; first compound 0.2 µM) | relative viability ([2]; first compound 0.6325 µM) | relative viability ([2]; first compound 2 µM) | relative viability ([2]; first compound 6.325 µM) | relative viability ([2]; first compound 20 µM) | relative viability ([3]; first compound 0.04 µM) | relative viability ([3]; first compound 0.1265 µM) | relative viability ([3]; first compound 0.4 µM) | relative viability ([3]; first compound 1.265 µM) | relative viability ([3]; first compound 4 µM) | relative viability ([4]; first compound 0.04 µM) | relative viability ([4]; first compound 0.1265 µM) | relative viability ([4]; first compound 0.4 µM) | relative viability ([4]; first compound 1.265 µM) | relative viability ([4]; first compound 4 µM) |
| --- | --- | --- | --- | --- | --- | --- | --- | --- | --- | --- | --- | --- | --- | --- | --- | --- | --- | --- | --- | --- |
| NCI-H838 | 1.14 | 0.864 | 1.12 | 0.598 | 0.565 | 1.01 | 0.889 | 0.994 | 0.926 | 0.866 | 0.378 | 0.259 | 0.266 | 0.247 | 0.259 | 0.599 | 0.457 | 0.533 | 0.336 | 0.406 |
| A549 | 1.03 | 0.922 | 1.1 | 0.959 | 0.969 | 1.04 | 0.957 | 1.05 | 0.932 | 0.902 | – | – | – | – | – | – | – | – | – | – |
| NCI-H2342 | – | – | – | – | – | – | – | – | – | – | 0.323 | 0.323 | 0.276 | 0.241 | 0.294 | 0.792 | 0.685 | 0.79 | 0.829 | 0.944 |
| NCI-H1623 | – | – | – | – | – | – | – | – | – | – | 0.523 | 0.466 | 0.576 | 0.62 | 0.336 | – | – | – | – | – |
| SK-LU-1 | 0.799 | 0.841 | 0.888 | 0.698 | 0.569 | 0.91 | 0.787 | 0.846 | 0.721 | 0.922 | 0.217 | 0.189 | 0.209 | 0.183 | 0.173 | 0.532 | 0.452 | 0.474 | 0.396 | 0.263 |
| NCI-H2085 | 0.825 | 0.732 | 0.889 | 0.7 | 0.646 | 0.876 | 0.768 | 0.876 | 0.692 | 0.701 | 0.267 | 0.262 | 0.246 | 0.265 | 0.257 | – | 0.613 | 0.655 | 0.532 | 0.514 |
| NCI-H460 | 1.26 | 0.982 | 1.12 | 0.9 | 0.335 | 1.07 | 1.2 | 0.929 | – | 0.893 | 0.707 | 0.421 | 0.496 | 0.465 | 0.361 | 0.172 | 0.161 | – | 0.145 | 0.154 |
| Calu-6 | 1.15 | 1.04 | 1.01 | 0.956 | 0.91 | 1.02 | 1.03 | 0.981 | 0.991 | 0.986 | – | – | – | – | – | – | – | – | – | – |
| RERF-LC-KJ | 0.966 | 0.79 | 0.808 | 0.809 | 0.765 | 0.915 | 0.943 | 0.827 | 0.893 | 0.764 | 0.988 | 0.668 | 0.76 | 0.591 | 0.508 | 0.852 | 0.786 | 0.89 | 0.756 | 0.732 |
